We go through one molecule from patent US20040116505A1, “Treatment of tics, tremors and related disorders” (priority 2001, published 2004).

The conditions of data set [1]: cited from earlier work.
For data set [2] the following is noted: in vivo; cited from earlier work.
Data set [3] has as its system patients suffering from tics. The data set is described as follows: Study in five patients suffering from tics who failed standard drug therapies. The following applies: five patients non-responsive to standard tic therapies; 250 mg BID or 500 mg BID to 1500 mg BID. Type of data set: in vivo, human. On the procedure:
Patients received either Low (250 mg BID) or standard doses (500 mg BID to 1500 mg BID) of levetiracetam.

On to `CC[C@@H](C(N)=O)N1CCCC1=O` [levetiracetam, (S)-2-(2-Oxo-pyrrolidin-1-yl)-butyramide], for which the “levetiracetam excreted unchanged or as an inactive metabolite” value in data set [1] (in vivo) is 90%. In data set [1] (oral), the oral bioavailability was approximately 100%. Moreover, in data set [2], the side effects result was “minimal side effects”. Moreover, in data set [3], the “reduction of tic symptoms” value is “majority of patients experienced a reduction of tic symptoms”.
